Experimental data taken from patent US20150366890A1, “COMPOSITIONS AND METHODS FOR TREATING FUNGAL INFECTIONS” (TRUSTEES OF BOSTON UNIVERSITY, priority 2013, published 2015).
Like-named read-outs stand apart in the source and are kept apart here.

System: S. cerevisiae wildtype and deletion strains
Type: cell-based

C[C@@H]1[C@H](O)[C@@H](C)/C=C/C=C/C=C/C=C/C=C/C=C/C=C/[C@H](O[C@@H]2O[C@H](C)[C@@H](O)[C@H](N)[C@@H]2O)C[C@@H]2O[C@](O)(C[C@@H](O)C[C@@H](O)[C@H](O)CC[C@@H](O)C[C@@H](O)CC(=O)O[C@H]1C)C[C@H](O)[C@H]2C(=O)O [AMB, amphotericin B]
additive resistance on deleting the remaining citrate synthases in the cit3 background (S. cerevisiae CIT1/CIT2 deletions in cit3 background): additive resistance | CFU (24-well colony forming assay), AF susceptibility vs wildtype (S. cerevisiae PAB101, WT): Normal | CFU (24-well colony forming assay), AF susceptibility vs wildtype (S. cerevisiae PAB102, HSP104 deletion): Normal | CFU (24-well colony forming assay), AF susceptibility vs wildtype (S. cerevisiae PAB103, SDH2 deletion): Resistant (″Resistant″ or ″Sensitive″ indicate at least a 5-fold CFU difference from wildtype at the final time point) | CFU (24-well colony forming assay), AF susceptibility vs wildtype (S. cerevisiae PAB104, FRE8 deletion): Resistant (″Resistant″ or ″Sensitive″ indicate at least a 5-fold CFU difference from wildtype at the final time point) | CFU (24-well colony forming assay), AF susceptibility vs wildtype (S. cerevisiae PAB105, CHA4 deletion): Resistant (″Resistant″ or ″Sensitive″ indicate at least a 5-fold CFU difference from wildtype at the final time point) | CFU (24-well colony forming assay), AF susceptibility vs wildtype (S. cerevisiae PAB106, FMS1 deletion): Resistant (″Resistant″ or ″Sensitive″ indicate at least a 5-fold CFU difference from wildtype at the final time point) | CFU (24-well colony forming assay), AF susceptibility vs wildtype (S. cerevisiae PAB107, NDE1 deletion): Resistant (″Resistant″ or ″Sensitive″ indicate at least a 5-fold CFU difference from wildtype at the final time point) | CFU (24-well colony forming assay), AF susceptibility vs wildtype (S. cerevisiae PAB108, ALD3 deletion): Normal | CFU (24-well colony forming assay), AF susceptibility vs wildtype (S. cerevisiae PAB112, MNE1 deletion): Resistant (″Resistant″ or ″Sensitive″ indicate at least a 5-fold CFU difference from wildtype at the final time point) | CFU (24-well colony forming assay), AF susceptibility vs wildtype (S. cerevisiae PAB113, FUM1 deletion): Resistant (″Resistant″ or ″Sensitive″ indicate at least a 5-fold CFU difference from wildtype at the final time point) | CFU (24-well colony forming assay), AF susceptibility vs wildtype (S. cerevisiae PAB114, TPK2 deletion): Resistant (″Resistant″ or ″Sensitive″ indicate at least a 5-fold CFU difference from wildtype at the final time point) | CFU (24-well colony forming assay), AF susceptibility vs wildtype (S. cerevisiae PAB116, ISU1 deletion): Normal | CFU (24-well colony forming assay), AF susceptibility vs wildtype (S. cerevisiae PAB117, CYC7 deletion): Normal | CFU (24-well colony forming assay), AF susceptibility vs wildtype (S. cerevisiae PAB119, CIT2 deletion): Resistant (″Resistant″ or ″Sensitive″ indicate at least a 5-fold CFU difference from wildtype at the final time point) | CFU (24-well colony forming assay), AF susceptibility vs wildtype (S. cerevisiae PAB120, HSP30 deletion): Normal | CFU (24-well colony forming assay), AF susceptibility vs wildtype (S. cerevisiae PAB121, SDH1 deletion): Resistant (″Resistant″ or ″Sensitive″ indicate at least a 5-fold CFU difference from wildtype at the final time point) | CFU (24-well colony forming assay), AF susceptibility vs wildtype (S. cerevisiae PAB122, TPK3 deletion): Resistant (″Resistant″ or ″Sensitive″ indicate at least a 5-fold CFU difference from wildtype at the final time point) | CFU (24-well colony forming assay), AF susceptibility vs wildtype (S. cerevisiae PAB123, ISU2 deletion): Normal | CFU (24-well colony forming assay), AF susceptibility vs wildtype (S. cerevisiae PAB124, TPK1 deletion): Resistant (″Resistant″ or ″Sensitive″ indicate at least a 5-fold CFU difference from wildtype at the final time point) | CFU (24-well colony forming assay), AF susceptibility vs wildtype (S. cerevisiae PAB132, CIT3 deletion): Resistant (″Resistant″ or ″Sensitive″ indicate at least a 5-fold CFU difference from wildtype at the final time point) | CFU (24-well colony forming assay), AF susceptibility vs wildtype (S. cerevisiae PAB135, NDI1 deletion): Resistant (″Resistant″ or ″Sensitive″ indicate at least a 5-fold CFU difference from wildtype at the final time point) | CFU (24-well colony forming assay), AF susceptibility vs wildtype (S. cerevisiae PAB145, CIT1 deletion): Resistant (″Resistant″ or ″Sensitive″ indicate at least a 5-fold CFU difference from wildtype at the final time point) | CFU (24-well colony forming assay), AF susceptibility vs wildtype (S. cerevisiae PAB149, YAK1 deletion): Sensitive (″Resistant″ or ″Sensitive″ indicate at least a 5-fold CFU difference from wildtype at the final time point) | CFU (24-well colony forming assay), AF susceptibility vs wildtype (S. cerevisiae PAB153, SHO1 deletion): Sensitive (″Resistant″ or ″Sensitive″ indicate at least a 5-fold CFU difference from wildtype at the final time point) | CFU (24-well colony forming assay), AF susceptibility vs wildtype (S. cerevisiae PAB155, FBP1 deletion): Sensitive (″Resistant″ or ″Sensitive″ indicate at least a 5-fold CFU difference from wildtype at the final time point) | CFU (24-well colony forming assay), AF susceptibility vs wildtype (S. cerevisiae PAB158, MSN4 deletion): Normal | CFU (24-well colony forming assay), AF susceptibility vs wildtype (S. cerevisiae PAB161, MSN2 deletion): Normal | CFU (24-well colony forming assay), AF susceptibility vs wildtype (S. cerevisiae PAB162, YAP1 deletion): Normal | CFU (24-well colony forming assay), AF susceptibility vs wildtype (S. cerevisiae PAB163, CIN5 deletion): Normal | CFU (24-well colony forming assay), AF susceptibility vs wildtype (S. cerevisiae PAB164, Pde2 deletion): Normal | CFU (24-well colony forming assay), AF susceptibility vs wildtype (S. cerevisiae PAB165, USV1 deletion): Normal | CFU (24-well colony forming assay), AF susceptibility vs wildtype (S. cerevisiae PAB166, CAD1 deletion): Normal | CFU (24-well colony forming assay), AF susceptibility vs wildtype (S. cerevisiae PAB167, RIM101 deletion): Normal | CFU (24-well colony forming assay), AF susceptibility vs wildtype (S. cerevisiae PAB168, RAS1 deletion): Resistant (″Resistant″ or ″Sensitive″ indicate at least a 5-fold CFU difference from wildtype at the final time point) | CFU (24-well colony forming assay), AF susceptibility vs wildtype (S. cerevisiae PAB169, HYR1 deletion): Resistant (″Resistant″ or ″Sensitive″ indicate at least a 5-fold CFU difference from wildtype at the final time point) | CFU (24-well colony forming assay), AF susceptibility vs wildtype (S. cerevisiae PAB170, CRZ1 deletion): Normal | CFU (24-well colony forming assay), AF susceptibility vs wildtype (S. cerevisiae PAB171, RAS2 deletion): Resistant (″Resistant″ or ″Sensitive″ indicate at least a 5-fold CFU difference from wildtype at the final time point) | CFU (24-well colony forming assay), AF susceptibility vs wildtype (S. cerevisiae PAB172, XBP1 deletion): Normal | CFU (24-well colony forming assay), AF susceptibility vs wildtype (S. cerevisiae PAB173, SRV2 deletion): Normal | CFU (24-well colony forming assay), AF susceptibility vs wildtype (S. cerevisiae PAB174, TPS3 deletion): Resistant (″Resistant″ or ″Sensitive″ indicate at least a 5-fold CFU difference from wildtype at the final time point) | CFU (24-well colony forming assay), AF susceptibility vs wildtype (S. cerevisiae PAB175, TPS2 deletion): Sensitive (″Resistant″ or ″Sensitive″ indicate at least a 5-fold CFU difference from wildtype at the final time point) | CFU (24-well colony forming assay), AF susceptibility vs wildtype (S. cerevisiae PAB177, SOD2 deletion): Normal | CFU (24-well colony forming assay), AF susceptibility vs wildtype (S. cerevisiae PAB178, CTA1 deletion): Normal | CFU (24-well colony forming assay), AF susceptibility vs wildtype (S. cerevisiae PAB179, CTT1 deletion): Normal | CFU (24-well colony forming assay), AF susceptibility vs wildtype (S. cerevisiae PAB180, MET1 deletion): Normal | CFU (24-well colony forming assay), AF susceptibility vs wildtype (S. cerevisiae PAB181, TVP18 deletion): Normal | CFU (24-well colony forming assay), AF susceptibility vs wildtype (S. cerevisiae PAB182, PML39 deletion): Normal | CFU (24-well colony forming assay), AF susceptibility vs wildtype (S. cerevisiae PAB183, VPS9 deletion): Normal | higher drug concentration required by citrate synthase triple mutant to achieve the sensitivity of the single mutants (S. cerevisiae cit1 cit2 cit3 triple mutant, 3 hours of drug exposure): more than 8 fold | reduction of killing at 3 hours by thiourea (S. cerevisiae, 50 mM thiourea for 30 minutes prior to the addition of AF drugs): ~15 fold
